Test results as given in ChEMBL document CHEMBL1201862, “PubChem BioAssay data set” (2004).
The source made the active and inactive calls.

Tests used:
[1] = M. tuberculosis H37Rv growth inhibitors, H37Rv strain (AID 1626); type: functional
[2] = target: T1, Sphingosine 1-phosphate receptor 2 (Homo sapiens, UniProt O95136); assay: Dose Response Cell Based Assay for Antagonists of the S1P2 Receptor. [Related pubchem assays: 856, 736 ]; type: functional
[3] = target: T1, Sphingosine 1-phosphate receptor 2; assay: Dose Response Cell Based Assay for Agonists of the S1P2 Receptor. [Related pubchem assays: 729, 736, 843 ]; type: functional
[4] = target: T2, Endoribonuclease toxin MazF (Escherichia coli K-12, UniProt P0AE70); assay: MazF toxin RNase activators, dose response, biochemical, fluorescence, single-stranded RNA substrate, uHTS hits (AID 588481); type: functional
T2 sequence (P0AE70 whole entry): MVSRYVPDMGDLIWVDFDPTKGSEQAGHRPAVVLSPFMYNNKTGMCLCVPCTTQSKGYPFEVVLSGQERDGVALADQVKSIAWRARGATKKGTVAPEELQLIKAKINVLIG

[5] = target: T2, Endoribonuclease toxin MazF; assay: fluorescent RNA oligo signal without MazF, dose response, counter-screen for MazEF activator project, biochemical, fluorescence, single-stranded RNase substrate (AID 588502); type: functional
[6] = target: T3, Corticotropin-releasing factor receptor 2/Corticotropin-releasing factor-binding protein (Homo sapiens, UniProt P24387+Q13324); assay: activators of CRF receptor 2 with binding protein – uHTS hits, confirmation (AID 602473); type: functional; conditions: read-out: EC50_Mean
T3 sequence (Q13324 whole entry): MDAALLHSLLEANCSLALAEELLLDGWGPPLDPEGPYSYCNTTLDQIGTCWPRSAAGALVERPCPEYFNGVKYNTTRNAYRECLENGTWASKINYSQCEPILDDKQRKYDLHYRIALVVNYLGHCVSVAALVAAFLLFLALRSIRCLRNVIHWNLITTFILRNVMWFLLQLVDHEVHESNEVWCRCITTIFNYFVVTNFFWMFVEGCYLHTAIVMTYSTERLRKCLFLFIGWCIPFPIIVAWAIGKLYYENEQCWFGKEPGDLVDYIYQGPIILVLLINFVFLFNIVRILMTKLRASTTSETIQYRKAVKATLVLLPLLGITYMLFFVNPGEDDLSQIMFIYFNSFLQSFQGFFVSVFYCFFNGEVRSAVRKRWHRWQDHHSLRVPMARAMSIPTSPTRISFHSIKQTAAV
T3 sequence (P24387 whole entry): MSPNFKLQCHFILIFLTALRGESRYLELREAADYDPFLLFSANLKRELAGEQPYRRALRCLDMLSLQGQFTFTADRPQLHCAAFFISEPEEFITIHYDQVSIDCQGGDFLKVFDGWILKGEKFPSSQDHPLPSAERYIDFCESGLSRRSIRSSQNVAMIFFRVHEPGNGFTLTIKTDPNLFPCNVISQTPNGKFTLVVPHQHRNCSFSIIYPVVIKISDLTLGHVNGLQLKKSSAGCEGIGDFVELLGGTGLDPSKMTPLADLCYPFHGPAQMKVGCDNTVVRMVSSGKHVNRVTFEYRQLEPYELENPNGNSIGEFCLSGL

Ephrin type-A receptor 4 = Ephrin type-A receptor 4 (Mus musculus, UniProt Q03137); assay: inhibitors of EphA4 binding to KYL peptide, primary screen, biochemical, colorimetric, mouse EphA4 (AID 689); type: functional
Sequence of Ephrin type-A receptor 4 (Q03137 whole entry): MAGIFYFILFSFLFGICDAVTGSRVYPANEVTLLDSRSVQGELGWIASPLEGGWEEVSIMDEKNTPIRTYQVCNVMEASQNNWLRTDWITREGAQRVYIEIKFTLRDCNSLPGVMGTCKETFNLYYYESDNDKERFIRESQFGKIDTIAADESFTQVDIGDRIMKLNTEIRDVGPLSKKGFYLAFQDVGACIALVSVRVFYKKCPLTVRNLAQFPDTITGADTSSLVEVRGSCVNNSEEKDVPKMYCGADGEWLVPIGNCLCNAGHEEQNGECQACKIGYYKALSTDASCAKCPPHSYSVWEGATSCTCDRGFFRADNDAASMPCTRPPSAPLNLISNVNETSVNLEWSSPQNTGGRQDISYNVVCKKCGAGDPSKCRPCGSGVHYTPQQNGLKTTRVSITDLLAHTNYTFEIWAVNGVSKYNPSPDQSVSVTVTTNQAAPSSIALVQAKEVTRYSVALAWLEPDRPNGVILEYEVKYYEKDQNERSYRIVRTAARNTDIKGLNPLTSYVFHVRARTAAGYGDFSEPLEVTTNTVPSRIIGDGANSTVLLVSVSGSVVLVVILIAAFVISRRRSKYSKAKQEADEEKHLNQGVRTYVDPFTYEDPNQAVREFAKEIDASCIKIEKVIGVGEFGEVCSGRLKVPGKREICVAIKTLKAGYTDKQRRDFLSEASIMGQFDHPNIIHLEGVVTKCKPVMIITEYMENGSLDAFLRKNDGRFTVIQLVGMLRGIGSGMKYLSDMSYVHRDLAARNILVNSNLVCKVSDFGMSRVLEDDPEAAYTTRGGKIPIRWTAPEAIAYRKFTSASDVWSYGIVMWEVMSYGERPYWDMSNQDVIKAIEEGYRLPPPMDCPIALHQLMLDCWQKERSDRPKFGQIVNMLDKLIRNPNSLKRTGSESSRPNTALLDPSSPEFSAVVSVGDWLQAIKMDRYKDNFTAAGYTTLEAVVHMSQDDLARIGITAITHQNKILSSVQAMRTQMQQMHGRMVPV

[7] = inhibitors of intracellular T. cruzi replication, confirmation, NIH3T3 host cells, beta-gal luminescence (AID 2044); type: functional, cell-based;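 also: intracellular parasites grown in NIH/3T3 mouse fibroblasts as host cells; luminescent beta-galactosidase reporter signal from transgenic T. cruzi replicating inside host cells; inhibitors lower the luminescence signal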
[8] = cytotoxicity toward NIH3T3 fibroblasts, dose response, counter-screen, cell-based, ATP luminescence, mouse fibroblasts (AID 2010); type: functional;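 also: cells exposed to compound for about 90 hours before reading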
Fatty acid synthase [9] = target: T4, Fatty acid synthase (Homo sapiens, UniProt P49327); assay: FAS thioesterase domain inhibitors, dose response, biochemical, kinetic fluorescence intensity (AID 624326); type: functional;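 also: rate of fluorescence rise from hydrolysis of a fluorogenic O-methyl fluorescein ester substrate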
T4 sequence (P49327 whole entry, the tested form may be a part): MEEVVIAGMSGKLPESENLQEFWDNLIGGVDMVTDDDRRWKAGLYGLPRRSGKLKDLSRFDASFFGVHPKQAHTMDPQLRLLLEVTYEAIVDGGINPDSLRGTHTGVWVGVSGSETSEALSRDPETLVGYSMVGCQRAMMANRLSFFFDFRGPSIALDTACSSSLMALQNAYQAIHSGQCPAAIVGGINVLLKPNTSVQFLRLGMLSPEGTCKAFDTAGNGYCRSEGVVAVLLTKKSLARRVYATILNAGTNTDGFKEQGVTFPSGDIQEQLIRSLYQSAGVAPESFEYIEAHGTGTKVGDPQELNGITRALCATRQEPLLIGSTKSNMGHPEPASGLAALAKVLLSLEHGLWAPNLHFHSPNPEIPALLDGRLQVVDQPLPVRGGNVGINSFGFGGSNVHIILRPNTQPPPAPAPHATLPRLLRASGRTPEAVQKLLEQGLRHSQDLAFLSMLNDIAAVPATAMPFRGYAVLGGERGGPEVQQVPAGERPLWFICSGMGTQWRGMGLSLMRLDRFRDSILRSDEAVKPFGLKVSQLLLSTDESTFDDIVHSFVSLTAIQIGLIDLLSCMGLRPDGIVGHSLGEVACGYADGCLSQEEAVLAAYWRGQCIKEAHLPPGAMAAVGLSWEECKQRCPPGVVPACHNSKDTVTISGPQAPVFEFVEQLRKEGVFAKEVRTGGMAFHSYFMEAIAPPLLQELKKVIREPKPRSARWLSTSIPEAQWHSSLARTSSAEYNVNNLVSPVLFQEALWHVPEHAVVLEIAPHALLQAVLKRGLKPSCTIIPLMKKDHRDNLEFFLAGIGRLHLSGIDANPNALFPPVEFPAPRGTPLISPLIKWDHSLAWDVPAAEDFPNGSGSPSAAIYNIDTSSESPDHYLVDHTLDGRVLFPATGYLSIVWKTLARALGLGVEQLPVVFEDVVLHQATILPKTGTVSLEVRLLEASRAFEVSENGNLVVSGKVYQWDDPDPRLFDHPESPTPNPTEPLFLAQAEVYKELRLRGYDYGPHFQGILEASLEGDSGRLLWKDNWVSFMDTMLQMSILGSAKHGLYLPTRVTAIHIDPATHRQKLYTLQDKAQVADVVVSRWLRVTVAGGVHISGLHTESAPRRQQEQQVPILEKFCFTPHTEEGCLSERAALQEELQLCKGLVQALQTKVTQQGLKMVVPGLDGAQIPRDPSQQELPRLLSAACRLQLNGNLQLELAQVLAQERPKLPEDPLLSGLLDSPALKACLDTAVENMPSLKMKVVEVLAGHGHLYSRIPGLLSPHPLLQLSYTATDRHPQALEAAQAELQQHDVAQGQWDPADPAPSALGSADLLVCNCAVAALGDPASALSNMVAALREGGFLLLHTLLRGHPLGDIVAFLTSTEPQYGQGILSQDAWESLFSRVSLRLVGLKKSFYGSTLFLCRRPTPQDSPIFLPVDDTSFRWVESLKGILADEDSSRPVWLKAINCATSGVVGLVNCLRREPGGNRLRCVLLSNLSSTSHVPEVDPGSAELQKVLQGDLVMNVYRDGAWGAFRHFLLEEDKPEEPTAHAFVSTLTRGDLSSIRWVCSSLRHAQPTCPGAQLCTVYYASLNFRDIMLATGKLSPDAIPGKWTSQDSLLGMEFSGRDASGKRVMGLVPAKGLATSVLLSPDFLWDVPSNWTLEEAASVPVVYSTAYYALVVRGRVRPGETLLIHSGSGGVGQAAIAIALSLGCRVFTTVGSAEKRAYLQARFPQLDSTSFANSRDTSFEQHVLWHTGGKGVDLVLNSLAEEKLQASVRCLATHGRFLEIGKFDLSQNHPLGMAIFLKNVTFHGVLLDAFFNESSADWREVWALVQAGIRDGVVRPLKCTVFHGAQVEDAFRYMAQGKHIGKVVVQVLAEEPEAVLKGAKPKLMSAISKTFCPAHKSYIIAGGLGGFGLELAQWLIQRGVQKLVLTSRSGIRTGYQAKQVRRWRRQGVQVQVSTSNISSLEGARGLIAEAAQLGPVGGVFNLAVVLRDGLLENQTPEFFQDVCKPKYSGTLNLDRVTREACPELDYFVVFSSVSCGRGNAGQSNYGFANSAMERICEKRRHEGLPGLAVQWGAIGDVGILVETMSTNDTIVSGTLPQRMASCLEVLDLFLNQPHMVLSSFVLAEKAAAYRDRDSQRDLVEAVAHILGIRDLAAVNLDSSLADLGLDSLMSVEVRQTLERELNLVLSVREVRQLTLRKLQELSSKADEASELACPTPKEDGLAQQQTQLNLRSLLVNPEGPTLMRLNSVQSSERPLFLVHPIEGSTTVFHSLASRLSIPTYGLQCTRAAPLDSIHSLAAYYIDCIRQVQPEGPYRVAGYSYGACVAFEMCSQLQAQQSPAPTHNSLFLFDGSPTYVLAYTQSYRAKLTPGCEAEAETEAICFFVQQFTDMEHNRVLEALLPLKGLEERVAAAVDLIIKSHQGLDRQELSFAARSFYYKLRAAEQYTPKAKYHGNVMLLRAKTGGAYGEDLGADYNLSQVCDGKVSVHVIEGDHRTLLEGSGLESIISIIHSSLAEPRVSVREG

Fatty acid synthase [10] = target: T4, Fatty acid synthase; assay: FAS thioesterase domain inhibitors, dose response, biochemical, endpoint fluorescence intensity, uHTS hits (AID 624327); type: functional;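 also: fluorescence from hydrolysis of an O-methyl fluorescein acyl ester substrate by the enzyme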
[11] = target: Dual specificity tyrosine-phosphorylation-regulated kinase 1A (Rattus norvegicus, UniProt Q63470); type: biochemical, Homo sapiens
[12] = target: Oxysterols receptor LXR-beta (Homo sapiens, UniProt P55055); assay: LXR agonists, Gal4 luciferase reporter, dose response, counter-screen for ssDAF-12 agonist project, cell-based, luminescence, HEK293, S. stercoralis campaign (AID 720737); type: functional; conditions: read-out: IC50 (the source's name)
Sequence of Oxysterols receptor LXR-beta (P55055 whole entry, the tested form may be a part): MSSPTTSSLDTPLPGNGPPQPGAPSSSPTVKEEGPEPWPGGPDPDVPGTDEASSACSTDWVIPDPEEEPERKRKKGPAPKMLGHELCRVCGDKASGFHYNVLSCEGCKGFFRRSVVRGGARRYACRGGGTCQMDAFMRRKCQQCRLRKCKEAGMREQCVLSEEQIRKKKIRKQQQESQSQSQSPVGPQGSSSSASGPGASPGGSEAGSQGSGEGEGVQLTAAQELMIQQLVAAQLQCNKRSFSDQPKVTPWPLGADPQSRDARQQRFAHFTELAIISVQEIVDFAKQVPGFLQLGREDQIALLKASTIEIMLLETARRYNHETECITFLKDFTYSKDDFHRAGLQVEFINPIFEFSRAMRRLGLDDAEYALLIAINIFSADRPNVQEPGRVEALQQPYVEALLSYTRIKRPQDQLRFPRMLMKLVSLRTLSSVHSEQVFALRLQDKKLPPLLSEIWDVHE

[13] = Luminescence-based cell-based high throughput dose response assay to identify activators of the DAF-12 from the parasite S. stercoralis (ssDAF-12).; type: functional
[14] = target: FAD-linked sulfhydryl oxidase ALR (Homo sapiens, UniProt P55789); assay: inhibitors of human ALR sulfhydryl oxidase, dose response, biochemical, H2O2 detection, luminescence, cherry-pick (AID 493248)
Sequence of FAD-linked sulfhydryl oxidase ALR (P55789 whole entry): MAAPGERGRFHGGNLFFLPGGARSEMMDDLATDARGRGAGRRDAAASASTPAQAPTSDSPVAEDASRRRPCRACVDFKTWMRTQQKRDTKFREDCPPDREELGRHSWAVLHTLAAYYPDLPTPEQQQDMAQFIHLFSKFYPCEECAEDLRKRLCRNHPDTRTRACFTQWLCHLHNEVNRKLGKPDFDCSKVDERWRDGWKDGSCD

[15] = inhibitors of PGC1a acetylation in cells, dose response, cell-based, cherry-picked samples (AID 720514); type: functional;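 also: potency may reflect raised or lowered acetylation signal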

T1 sequence (O95136 whole entry): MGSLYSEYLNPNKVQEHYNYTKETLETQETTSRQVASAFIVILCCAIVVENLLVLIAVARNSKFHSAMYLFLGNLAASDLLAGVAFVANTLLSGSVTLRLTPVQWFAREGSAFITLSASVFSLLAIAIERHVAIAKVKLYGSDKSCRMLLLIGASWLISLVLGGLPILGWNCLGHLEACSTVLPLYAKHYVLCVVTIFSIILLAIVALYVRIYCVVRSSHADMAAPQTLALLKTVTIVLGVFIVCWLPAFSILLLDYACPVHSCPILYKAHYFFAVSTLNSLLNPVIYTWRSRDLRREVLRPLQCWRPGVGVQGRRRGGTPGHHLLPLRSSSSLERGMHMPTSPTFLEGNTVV

With `O=C(CCSc1ccc(Cl)cc1)c1cccs1` the IC50 [1] was > 100 µM (active).
In the case of `Cc1ccc2[nH]c3c(N4CCCCCC4)ncnc3c2c1`, the IC50 [2] was 3.44 µM (active).
With `CCCc1nn(-c2cc(Cl)ccc2OC)c2c1C(=O)CCC2` the EC50 [3] was > 50 µM (not active).
For `CCCn1nc(-c2ccccc2)c2nc3ccccc3nc21`, the EC50 [4] was > 99 µM (inactive), the EC50 [5] was 61.7 µM (inactive) and the EC50 [6] was 5.23 µM (active). The IC50 (Ephrin type-A receptor 4) was 10.3 µM (active).
For `CN(CCO)c1cc(NCCCN2CCC(Cc3ccccc3)CC2)c2nonc2c1[N+](=O)[O-]`, the EC50 [7] was < 0.1 µM (active), the EC50 [8] was > 60 µM (not active) and the IC50 (Fatty acid synthase [9]) was 6.52 µM (active). The EC50 (cells) was 0.215 µM (active) and the IC50 (Fatty acid synthase [10]) was 12.2 µM (active).
In the case of `O/C(=C\c1nc2ccccc2nc1/C=C(\O)c1ccccc1)c1ccccc1`, the IC50 [1] was > 100 µM (active).
In the case of `CN1CCc2nc3sc(C#N)c(N)c3c(-c3cccs3)c2C1`, the AC50 [11] was 3.27 µM (active), the EC50 [7] was < 0.1 µM (active) and the EC50 [8] was > 60 µM (not active). The EC50 (cells) was 0.06 µM (active).
For `N#C/C(=C\c1ccc[nH]1)C(=O)Nc1ccccc1F`, the EC50 [12] was > 67.5 µM (inactive) and the IC50 [13] was > 67.5 µM (inactive).
In the case of `Cc1cc(C)c(S(=O)(=O)Nc2ccc(O)cc2)cc1C`, the AC50 [14] was 0.926 µM (active) and the EC50 [3] was > 50 µM (not active).
For `COc1ccc(F)cc1CN1CCN(CC(=O)N2CCc3ccccc32)CC1`, the AC50 [15] was 24.9 µM (active).
